ChEMBL document CHEMBL4630901 (2021)
Blank lines part the entries; values can stand above or below the molecule they belong to.

Experiments:
[1] = target: 5-hydroxytryptamine receptor 1E (Homo sapiens) (UniProt P28566); conditions: Compound concentration 10.0 uM
[2] = target: 5-hydroxytryptamine receptor 3A (Homo sapiens, UniProt P46098); assay: GPCRScan assay: inhibition of 5-HT3; parameters: radioligand conc. used [nm] 1.0 – 2.0, parental cells HEKT
[3] = target: D(3) dopamine receptor (Homo sapiens) (UniProt P35462); conditions: Compound concentration 10.0 uM
Sequence of D(3) dopamine receptor (Homo sapiens) (P35462 whole entry): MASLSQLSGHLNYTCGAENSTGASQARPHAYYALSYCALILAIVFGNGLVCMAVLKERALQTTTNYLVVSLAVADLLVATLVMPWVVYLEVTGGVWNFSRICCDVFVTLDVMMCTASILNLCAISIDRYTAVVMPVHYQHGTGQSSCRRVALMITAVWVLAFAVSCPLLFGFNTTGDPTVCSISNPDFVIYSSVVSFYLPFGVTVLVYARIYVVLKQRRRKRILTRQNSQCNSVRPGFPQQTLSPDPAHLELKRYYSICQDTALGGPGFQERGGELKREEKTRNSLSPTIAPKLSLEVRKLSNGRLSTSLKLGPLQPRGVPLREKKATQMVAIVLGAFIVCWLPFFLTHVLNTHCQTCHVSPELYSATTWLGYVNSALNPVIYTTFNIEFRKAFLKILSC

[4] = target: Sigma intracellular receptor 2 (Homo sapiens, UniProt Q5BJF2); assay: GPCRScan assay: inhibition of Sigma 2; parameters: radioligand conc. used [nm] 5.0, parental cells HEKT
Sequence of Sigma intracellular receptor 2 (Q5BJF2 whole entry): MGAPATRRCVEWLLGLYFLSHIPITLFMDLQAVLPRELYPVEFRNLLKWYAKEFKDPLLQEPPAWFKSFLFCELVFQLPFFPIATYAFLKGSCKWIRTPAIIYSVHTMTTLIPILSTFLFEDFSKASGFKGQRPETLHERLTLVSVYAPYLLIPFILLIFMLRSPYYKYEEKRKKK

[5] = target: 5-hydroxytryptamine receptor 1D (Homo sapiens) (UniProt P28221); conditions: Compound concentration 10.0 uM
[6] = target: Insulin receptor (Homo sapiens) (UniProt P06213); conditions: Rattus norvegicus; Compound concentration 10.0 uM
Sequence of Insulin receptor (Homo sapiens) (P06213 28-758 limits assumed): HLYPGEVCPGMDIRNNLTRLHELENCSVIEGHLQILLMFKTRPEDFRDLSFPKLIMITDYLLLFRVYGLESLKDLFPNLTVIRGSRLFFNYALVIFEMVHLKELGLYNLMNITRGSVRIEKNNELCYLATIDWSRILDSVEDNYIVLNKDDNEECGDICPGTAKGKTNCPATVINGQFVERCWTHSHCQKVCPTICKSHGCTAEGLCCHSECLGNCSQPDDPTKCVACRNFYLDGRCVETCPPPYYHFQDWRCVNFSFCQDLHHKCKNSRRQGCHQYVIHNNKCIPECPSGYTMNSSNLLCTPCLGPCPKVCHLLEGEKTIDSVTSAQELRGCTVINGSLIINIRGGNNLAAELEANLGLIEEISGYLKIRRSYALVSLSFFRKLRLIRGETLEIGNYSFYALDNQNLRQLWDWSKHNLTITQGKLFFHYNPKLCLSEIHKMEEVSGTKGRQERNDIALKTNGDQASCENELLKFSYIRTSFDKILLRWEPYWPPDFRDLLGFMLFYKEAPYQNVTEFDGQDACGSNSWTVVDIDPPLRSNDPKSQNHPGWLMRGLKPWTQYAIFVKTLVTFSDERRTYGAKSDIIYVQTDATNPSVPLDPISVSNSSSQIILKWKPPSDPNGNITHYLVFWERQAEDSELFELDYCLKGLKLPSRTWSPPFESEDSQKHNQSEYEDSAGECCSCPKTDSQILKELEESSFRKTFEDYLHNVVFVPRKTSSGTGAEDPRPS
Sequence of Insulin receptor (Homo sapiens) (P06213 763-1382 limits assumed): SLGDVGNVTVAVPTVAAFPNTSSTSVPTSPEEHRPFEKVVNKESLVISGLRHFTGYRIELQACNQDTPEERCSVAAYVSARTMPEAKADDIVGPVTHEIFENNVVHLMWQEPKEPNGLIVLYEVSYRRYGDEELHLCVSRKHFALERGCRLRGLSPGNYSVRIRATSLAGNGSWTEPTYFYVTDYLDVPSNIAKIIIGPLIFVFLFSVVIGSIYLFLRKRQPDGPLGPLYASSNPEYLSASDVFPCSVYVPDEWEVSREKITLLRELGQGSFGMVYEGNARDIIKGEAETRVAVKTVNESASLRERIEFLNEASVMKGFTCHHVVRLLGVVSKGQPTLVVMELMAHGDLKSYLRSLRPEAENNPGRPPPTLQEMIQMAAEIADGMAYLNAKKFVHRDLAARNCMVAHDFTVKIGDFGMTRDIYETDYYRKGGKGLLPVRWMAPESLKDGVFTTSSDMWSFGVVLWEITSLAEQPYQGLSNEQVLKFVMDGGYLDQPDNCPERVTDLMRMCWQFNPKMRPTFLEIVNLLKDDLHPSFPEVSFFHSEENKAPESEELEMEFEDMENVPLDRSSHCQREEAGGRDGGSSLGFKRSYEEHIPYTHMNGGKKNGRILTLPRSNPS

[7] = target: Motilin receptor (Homo sapiens) (UniProt O43193); conditions: Compound concentration 10.0 uM
[8] = target: Glutamate receptor 2 (Homo sapiens) (UniProt P42262); conditions: Rattus norvegicus; Compound concentration 10.0 uM
[9] = target: Cannabinoid receptor 1 (Homo sapiens) (UniProt P21554); conditions: Compound concentration 10.0 uM
[10] = target: Prostacyclin receptor (Homo sapiens) (UniProt P43119); assay: IP (PGI2) Eurofins-Panlabs radioligand binding assay; parameters: ligand concentration 6 nM
Sequence of Prostacyclin receptor (Homo sapiens) (P43119 whole entry): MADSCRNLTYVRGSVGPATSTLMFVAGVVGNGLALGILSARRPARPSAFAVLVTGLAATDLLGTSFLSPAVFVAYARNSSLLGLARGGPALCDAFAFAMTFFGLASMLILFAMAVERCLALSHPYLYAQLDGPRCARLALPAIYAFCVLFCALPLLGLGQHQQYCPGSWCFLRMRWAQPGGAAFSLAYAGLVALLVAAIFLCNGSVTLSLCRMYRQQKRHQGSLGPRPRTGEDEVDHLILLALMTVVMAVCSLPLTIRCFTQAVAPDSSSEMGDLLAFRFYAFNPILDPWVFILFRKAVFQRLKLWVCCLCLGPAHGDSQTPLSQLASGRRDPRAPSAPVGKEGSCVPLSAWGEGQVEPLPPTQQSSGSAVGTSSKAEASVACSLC

[11] = target: Type-2 angiotensin II receptor (Homo sapiens) (UniProt P50052); conditions: Compound concentration 10.0 uM
[12] = target: D(2) dopamine receptor (Homo sapiens) (UniProt P14416); conditions: Compound concentration 10.0 uM
Sequence of D(2) dopamine receptor (Homo sapiens) (P14416 whole entry): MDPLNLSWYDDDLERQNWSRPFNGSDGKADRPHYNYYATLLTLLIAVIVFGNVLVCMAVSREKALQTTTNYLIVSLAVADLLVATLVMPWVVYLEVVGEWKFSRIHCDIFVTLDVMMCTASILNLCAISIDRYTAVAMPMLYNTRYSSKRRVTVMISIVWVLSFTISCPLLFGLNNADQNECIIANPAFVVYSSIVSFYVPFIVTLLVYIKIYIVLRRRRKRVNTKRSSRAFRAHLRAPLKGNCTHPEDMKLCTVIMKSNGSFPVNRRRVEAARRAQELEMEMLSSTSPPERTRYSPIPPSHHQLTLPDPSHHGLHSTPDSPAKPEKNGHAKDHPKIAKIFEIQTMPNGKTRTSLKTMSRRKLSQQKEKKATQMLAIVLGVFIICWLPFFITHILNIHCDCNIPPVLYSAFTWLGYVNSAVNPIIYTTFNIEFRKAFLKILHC

[13] = target: Gamma-aminobutyric acid type B receptor subunit 1 (Homo sapiens) (UniProt Q9UBS5); conditions: Rattus norvegicus; Compound concentration 10.0 uM
Sequence of Gamma-aminobutyric acid type B receptor subunit 1 (Homo sapiens) (Q9UBS5 whole entry): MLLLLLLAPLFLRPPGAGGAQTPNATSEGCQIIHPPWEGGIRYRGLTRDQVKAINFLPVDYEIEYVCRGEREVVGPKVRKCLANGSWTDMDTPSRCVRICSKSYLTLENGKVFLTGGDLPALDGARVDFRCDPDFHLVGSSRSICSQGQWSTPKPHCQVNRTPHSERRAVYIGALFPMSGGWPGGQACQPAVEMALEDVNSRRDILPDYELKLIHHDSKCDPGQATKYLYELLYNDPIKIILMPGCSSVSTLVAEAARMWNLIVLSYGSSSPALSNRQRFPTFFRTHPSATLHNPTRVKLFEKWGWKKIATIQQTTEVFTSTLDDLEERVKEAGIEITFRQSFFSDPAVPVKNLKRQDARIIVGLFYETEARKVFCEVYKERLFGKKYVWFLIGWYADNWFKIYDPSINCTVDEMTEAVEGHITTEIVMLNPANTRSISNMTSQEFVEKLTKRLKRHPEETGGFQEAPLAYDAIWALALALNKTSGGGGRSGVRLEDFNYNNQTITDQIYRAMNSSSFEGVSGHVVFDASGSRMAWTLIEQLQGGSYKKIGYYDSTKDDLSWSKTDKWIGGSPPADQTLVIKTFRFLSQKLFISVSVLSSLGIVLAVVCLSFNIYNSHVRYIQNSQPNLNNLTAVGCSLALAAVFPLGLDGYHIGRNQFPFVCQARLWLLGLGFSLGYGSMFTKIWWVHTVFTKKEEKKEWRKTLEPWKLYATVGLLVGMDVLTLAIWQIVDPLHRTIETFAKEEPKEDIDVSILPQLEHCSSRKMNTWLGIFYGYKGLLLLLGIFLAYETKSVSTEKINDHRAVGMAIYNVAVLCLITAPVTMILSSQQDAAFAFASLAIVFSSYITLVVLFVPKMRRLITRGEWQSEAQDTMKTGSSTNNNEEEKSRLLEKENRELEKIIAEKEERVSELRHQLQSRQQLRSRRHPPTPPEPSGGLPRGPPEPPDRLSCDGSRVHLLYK

[14] = target: Sodium-dependent serotonin transporter (Homo sapiens) (UniProt P31645); conditions: Compound concentration 10.0 uM
Sequence of Sodium-dependent serotonin transporter (Homo sapiens) (P31645 whole entry, looked up): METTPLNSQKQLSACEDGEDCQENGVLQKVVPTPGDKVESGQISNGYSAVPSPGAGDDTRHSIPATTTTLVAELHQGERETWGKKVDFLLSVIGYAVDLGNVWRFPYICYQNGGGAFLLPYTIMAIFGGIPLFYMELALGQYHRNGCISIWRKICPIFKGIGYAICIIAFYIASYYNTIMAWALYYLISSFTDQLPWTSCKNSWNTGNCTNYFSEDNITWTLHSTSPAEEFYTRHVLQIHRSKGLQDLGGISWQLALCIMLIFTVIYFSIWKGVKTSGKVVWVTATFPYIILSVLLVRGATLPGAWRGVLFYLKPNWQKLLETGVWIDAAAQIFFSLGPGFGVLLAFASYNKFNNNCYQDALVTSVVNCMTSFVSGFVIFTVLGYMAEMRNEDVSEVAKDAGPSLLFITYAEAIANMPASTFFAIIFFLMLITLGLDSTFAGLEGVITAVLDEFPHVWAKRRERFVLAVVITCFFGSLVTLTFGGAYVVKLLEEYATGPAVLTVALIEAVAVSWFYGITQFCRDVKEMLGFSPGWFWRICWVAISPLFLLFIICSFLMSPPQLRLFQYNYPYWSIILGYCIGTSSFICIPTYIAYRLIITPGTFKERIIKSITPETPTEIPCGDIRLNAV

[15] = target: T1, Alpha-2A adrenergic receptor (Homo sapiens) (UniProt P08913); conditions: Compound concentration 10.0 uM
T1 sequence (whole entry): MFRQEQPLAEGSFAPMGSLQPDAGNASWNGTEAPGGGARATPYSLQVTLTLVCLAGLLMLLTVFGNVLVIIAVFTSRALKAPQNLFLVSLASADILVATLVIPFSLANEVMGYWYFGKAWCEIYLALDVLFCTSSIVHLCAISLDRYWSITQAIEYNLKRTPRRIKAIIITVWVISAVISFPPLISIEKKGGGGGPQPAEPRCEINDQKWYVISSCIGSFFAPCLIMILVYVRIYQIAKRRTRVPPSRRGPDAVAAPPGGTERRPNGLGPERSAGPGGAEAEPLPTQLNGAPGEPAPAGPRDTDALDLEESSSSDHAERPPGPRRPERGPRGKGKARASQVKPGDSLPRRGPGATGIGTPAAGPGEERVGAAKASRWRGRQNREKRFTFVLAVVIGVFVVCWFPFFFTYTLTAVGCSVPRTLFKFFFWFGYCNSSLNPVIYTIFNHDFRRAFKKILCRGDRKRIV

[16] = target: Beta-3 adrenergic receptor (Homo sapiens) (UniProt P13945); conditions: Compound concentration 10.0 uM
[17] = target: T2, Alpha-2C adrenergic receptor (Homo sapiens) (UniProt P18825); conditions: Compound concentration 10.0 uM
T2 sequence (whole entry): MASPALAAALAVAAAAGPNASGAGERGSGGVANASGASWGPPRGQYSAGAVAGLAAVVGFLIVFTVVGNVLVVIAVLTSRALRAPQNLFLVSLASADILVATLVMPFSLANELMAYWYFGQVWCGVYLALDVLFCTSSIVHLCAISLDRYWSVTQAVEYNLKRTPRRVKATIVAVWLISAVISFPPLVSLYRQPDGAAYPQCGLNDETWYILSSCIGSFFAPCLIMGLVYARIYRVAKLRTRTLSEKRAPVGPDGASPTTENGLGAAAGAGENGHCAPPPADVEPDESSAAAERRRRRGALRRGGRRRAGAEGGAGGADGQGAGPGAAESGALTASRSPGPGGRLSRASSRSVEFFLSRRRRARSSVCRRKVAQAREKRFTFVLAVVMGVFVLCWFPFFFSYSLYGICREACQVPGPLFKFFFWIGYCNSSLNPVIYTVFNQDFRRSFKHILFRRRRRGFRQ

[18] = target: T3, Muscarinic acetylcholine receptor M1 (Homo sapiens) (UniProt P11229); conditions: Compound concentration 10.0 uM
T3 sequence (whole entry): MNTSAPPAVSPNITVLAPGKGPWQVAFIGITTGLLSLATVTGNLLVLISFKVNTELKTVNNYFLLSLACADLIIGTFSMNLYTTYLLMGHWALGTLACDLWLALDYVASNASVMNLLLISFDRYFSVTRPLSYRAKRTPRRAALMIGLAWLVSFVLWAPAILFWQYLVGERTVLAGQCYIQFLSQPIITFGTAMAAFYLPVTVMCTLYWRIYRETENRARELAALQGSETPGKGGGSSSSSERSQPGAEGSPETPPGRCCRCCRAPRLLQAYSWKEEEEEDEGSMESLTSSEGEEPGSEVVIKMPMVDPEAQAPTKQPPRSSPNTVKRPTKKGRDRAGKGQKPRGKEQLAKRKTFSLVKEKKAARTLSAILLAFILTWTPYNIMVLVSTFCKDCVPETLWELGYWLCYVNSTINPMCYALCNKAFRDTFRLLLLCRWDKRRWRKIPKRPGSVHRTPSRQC

[19] = target: B1 bradykinin receptor (Homo sapiens) (UniProt P46663); assay: Inhibition of Bradykinin B1 at 10 µM in the Eurofins-Panlabs radioligand binding assay (Eurofins_assay_212510); conditions: Compound concentration 10.0 uM
[20] = target: B2 bradykinin receptor (Homo sapiens) (UniProt P30411); conditions: Compound concentration 10.0 uM

Sequence of 5-hydroxytryptamine receptor 3A (P46098 whole entry): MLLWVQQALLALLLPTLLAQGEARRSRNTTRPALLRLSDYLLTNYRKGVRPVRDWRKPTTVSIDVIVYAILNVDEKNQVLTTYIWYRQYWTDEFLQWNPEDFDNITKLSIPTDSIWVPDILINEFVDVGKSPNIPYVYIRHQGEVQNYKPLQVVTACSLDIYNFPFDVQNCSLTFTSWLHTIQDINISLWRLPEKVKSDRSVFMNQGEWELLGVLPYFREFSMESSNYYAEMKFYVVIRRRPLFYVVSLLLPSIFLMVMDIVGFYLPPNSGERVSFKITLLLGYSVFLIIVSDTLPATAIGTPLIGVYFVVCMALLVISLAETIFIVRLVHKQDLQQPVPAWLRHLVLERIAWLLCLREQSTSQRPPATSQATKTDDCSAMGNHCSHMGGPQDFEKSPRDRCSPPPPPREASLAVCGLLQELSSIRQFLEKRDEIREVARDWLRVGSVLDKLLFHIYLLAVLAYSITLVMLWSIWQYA

inhibition [1]: 18.3% | Ki ([2]; read-out: Ki): 585 nM | Ki ([2]; read-out: pKi (converted)): 537 nM | inhibition [3]: 3.81% | Ki [4]: 1100 nM | inhibition [5]: 9.12%
SMILES: Cc1c(N2CCNCC2)nc2ccc(Br)cc2c1C(=O)NC[C@H](CCC(=O)O)c1ccccc1Cl [BAY-403]

SMILES: Cc1c(N2CCCC2)nc2ccc(Br)cc2c1C(=O)NC[C@H](CCC(=O)O)c1ccccc1Cl [BAY-6672]
inhibition [6]: 11% | inhibition [7]: 10% | inhibition [8]: -3% | inhibition [9]: 10% | inhibition ([10]; Compound concentration 0.001 uM): 3% | inhibition ([10]; Compound concentration 0.01 uM): -2% | inhibition ([10]; Compound concentration 0.1 uM): -3% | inhibition ([10]; Compound concentration 1.0 uM): -0% | inhibition ([10]; Compound concentration 10.0 uM): 20% | inhibition [11]: 2% | inhibition [12]: 6% | inhibition [13]: -4% | inhibition [14]: -4% | inhibition [15]: 13% | inhibition [16]: 4% | inhibition [17]: 6% | inhibition [18]: 9% | inhibition [19]: 7% | inhibition [20]: -6%
